The source of these data is ChEMBL document CHEMBL4265945, “Synthesis, biological evaluation and structure-activity relationship of a novel class of PI3Kα H1047R mutant inhibitors” (Eur J Med Chem, 2018).

Assay [1] concerns HCT-116. As to conditions: Homo sapiens, HCT-116, 72 h.
In assay [2] the target is Phosphatidylinositol 4,5-bisphosphate 3-kinase catalytic subunit alpha isoform (Homo sapiens, UniProt P42336, H1047R). As to the kind of experiment: Inhibition of PI3Kalpha H1047R mutant (unknown origin) by HTRF assay. On the technique in general: Time-resolved FRET reads energy transfer from a long-lived donor to a nearby acceptor.
Chain of Phosphatidylinositol 4,5-bisphosphate 3-kinase catalytic subunit alpha isoform (Homo sapiens, UniProt P42336, H1047R) (P42336 whole entry H1047R, canonical isoform): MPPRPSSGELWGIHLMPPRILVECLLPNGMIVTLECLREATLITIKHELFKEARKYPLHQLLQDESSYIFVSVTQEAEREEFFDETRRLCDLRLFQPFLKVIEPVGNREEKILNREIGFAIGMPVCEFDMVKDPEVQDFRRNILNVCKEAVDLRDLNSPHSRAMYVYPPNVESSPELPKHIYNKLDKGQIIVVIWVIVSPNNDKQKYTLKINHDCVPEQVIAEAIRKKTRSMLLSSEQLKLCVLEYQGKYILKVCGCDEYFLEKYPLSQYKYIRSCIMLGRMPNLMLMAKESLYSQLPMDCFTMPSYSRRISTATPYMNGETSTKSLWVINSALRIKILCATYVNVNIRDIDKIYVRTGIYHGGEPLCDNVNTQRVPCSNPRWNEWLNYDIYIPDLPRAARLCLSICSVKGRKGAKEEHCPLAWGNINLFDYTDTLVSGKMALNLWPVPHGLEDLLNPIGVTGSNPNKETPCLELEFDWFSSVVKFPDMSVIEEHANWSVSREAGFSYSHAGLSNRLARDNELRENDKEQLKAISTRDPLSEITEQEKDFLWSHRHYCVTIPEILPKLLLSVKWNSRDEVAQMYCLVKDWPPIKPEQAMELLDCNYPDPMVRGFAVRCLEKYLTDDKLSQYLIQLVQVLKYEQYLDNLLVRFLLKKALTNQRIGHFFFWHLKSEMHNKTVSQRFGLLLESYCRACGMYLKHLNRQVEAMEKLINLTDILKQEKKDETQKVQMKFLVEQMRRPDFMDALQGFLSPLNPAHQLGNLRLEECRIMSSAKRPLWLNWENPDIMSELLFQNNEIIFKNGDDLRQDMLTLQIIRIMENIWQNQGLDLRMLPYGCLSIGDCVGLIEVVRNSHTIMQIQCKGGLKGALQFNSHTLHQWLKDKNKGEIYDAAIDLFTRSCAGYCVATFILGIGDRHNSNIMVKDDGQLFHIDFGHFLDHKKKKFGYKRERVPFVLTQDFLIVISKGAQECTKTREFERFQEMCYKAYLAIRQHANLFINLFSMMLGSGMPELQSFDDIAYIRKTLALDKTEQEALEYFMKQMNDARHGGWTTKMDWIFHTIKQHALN
The next assay concerns MCF7. As to the kind of experiment: cells. To be noted: Homo sapiens, MCF7, 72 h.
Assay [3] addresses Phosphatidylinositol 4,5-bisphosphate 3-kinase catalytic subunit alpha isoform (Homo sapiens, UniProt P42336). As to the kind of experiment: Inhibition of wild type PI3Kalpha (unknown origin) after 40 mins by kinase-Glo reagent based luminescence assay. In general terms: Kinase-Glo measures the ATP left after a reaction by luminescence.
Assay [4] is described as follows: Inhibition of mTORC1 (unknown origin) after 40 mins by kinase-Glo reagent based luminescence assay. Set-up: species or system Homo sapiens.
Assay [5] deals with HCT-116. As to the kind of experiment: Induction of apoptosis in human HCT116 cells assessed as viable cells at 5 uM after 24 hrs by Annexin V-FITC/PI staining based flow cytometry (reference value: 93%). As to conditions: HCT-116, 24 h, read-out: Activity. Format: functional. Background: A flow cytometer gives signals particle by particle.
The test system of assay [6] is HCT-116. As to the kind of experiment: Induction of autophagy in human HCT116 cells assessed as accumulation of GFP/mRFP-tagged LC3 accumulation in cytoplasm after 12 hrs by laser scanning confocal microscopic analysis. The class given is functional, cell-based.
Assay [7] deals with HCT-116. As to the kind of experiment: Induction of autophagy in human HCT116 cells assessed as autophagic vacuole formation at 5 uM after 6 hrs by MDC staining based fluorescence microscopic analysis. The class given is functional, cell-based.
Assay [8] has as its system HCT-116. As to the kind of experiment: Induction of apoptosis in human HCT116 cells assessed as necrotic cells at 5 uM after 24 hrs by Annexin V-FITC/PI staining based flow cytometry (reference value: 0.39%). The class given is functional.
For assay [9], the system named is HCT-116. As to the kind of experiment: Induction of apoptosis in human HCT116 cells assessed as late apoptotic cells at 5 uM after 24 hrs by Annexin V-FITC/PI staining based flow cytometry (reference value: 2.35%). The class given is functional.
Assay [10] has as its system HCT-116. As to the kind of experiment: Induction of apoptosis in human HCT116 cells assessed as early apoptotic cells at 5 uM after 24 hrs by Annexin V-FITC/PI staining based flow cytometry (reference value: 4.07%). The class given is functional.
In assay [11] the target is Phosphatidylinositol 4,5-bisphosphate 3-kinase catalytic subunit gamma isoform (Homo sapiens, UniProt P48736). As to the kind of experiment: Inhibition of PI3Kgamma (unknown origin) after 40 mins by kinase-Glo reagent based luminescence assay.
Chain of Phosphatidylinositol 4,5-bisphosphate 3-kinase catalytic subunit gamma isoform (P48736 whole entry, canonical isoform): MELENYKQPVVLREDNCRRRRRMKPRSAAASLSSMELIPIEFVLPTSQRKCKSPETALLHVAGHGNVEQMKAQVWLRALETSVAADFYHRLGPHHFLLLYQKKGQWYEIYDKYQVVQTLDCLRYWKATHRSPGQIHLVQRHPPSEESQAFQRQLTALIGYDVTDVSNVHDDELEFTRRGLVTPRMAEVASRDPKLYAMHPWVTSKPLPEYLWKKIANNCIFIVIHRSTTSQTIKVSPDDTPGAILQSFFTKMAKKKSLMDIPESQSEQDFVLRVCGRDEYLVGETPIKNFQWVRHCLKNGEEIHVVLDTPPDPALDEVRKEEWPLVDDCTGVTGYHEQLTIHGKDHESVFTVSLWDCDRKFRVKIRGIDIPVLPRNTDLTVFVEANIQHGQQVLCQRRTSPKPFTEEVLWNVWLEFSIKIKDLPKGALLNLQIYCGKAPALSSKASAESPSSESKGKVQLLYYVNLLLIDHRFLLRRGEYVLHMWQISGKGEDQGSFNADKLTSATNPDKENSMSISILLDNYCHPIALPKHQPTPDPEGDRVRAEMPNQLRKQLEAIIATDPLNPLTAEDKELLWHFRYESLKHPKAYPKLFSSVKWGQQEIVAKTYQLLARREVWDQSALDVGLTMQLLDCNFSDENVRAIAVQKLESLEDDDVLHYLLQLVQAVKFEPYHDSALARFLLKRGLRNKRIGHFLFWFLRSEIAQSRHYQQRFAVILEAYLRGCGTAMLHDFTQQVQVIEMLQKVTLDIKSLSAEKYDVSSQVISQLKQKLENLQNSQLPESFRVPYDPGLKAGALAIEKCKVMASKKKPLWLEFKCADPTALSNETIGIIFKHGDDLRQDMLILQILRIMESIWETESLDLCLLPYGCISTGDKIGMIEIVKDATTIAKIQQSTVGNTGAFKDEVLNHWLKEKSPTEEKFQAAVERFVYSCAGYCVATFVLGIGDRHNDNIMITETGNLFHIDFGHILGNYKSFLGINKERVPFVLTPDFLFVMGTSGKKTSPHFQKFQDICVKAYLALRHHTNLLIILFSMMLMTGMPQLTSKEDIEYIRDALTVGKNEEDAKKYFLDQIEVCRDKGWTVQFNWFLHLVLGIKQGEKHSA
Assay [12] has as its target T1, Phosphatidylinositol 4,5-bisphosphate 3-kinase catalytic subunit delta isoform (Homo sapiens, UniProt O00329).
T1 sequence (O00329 whole entry): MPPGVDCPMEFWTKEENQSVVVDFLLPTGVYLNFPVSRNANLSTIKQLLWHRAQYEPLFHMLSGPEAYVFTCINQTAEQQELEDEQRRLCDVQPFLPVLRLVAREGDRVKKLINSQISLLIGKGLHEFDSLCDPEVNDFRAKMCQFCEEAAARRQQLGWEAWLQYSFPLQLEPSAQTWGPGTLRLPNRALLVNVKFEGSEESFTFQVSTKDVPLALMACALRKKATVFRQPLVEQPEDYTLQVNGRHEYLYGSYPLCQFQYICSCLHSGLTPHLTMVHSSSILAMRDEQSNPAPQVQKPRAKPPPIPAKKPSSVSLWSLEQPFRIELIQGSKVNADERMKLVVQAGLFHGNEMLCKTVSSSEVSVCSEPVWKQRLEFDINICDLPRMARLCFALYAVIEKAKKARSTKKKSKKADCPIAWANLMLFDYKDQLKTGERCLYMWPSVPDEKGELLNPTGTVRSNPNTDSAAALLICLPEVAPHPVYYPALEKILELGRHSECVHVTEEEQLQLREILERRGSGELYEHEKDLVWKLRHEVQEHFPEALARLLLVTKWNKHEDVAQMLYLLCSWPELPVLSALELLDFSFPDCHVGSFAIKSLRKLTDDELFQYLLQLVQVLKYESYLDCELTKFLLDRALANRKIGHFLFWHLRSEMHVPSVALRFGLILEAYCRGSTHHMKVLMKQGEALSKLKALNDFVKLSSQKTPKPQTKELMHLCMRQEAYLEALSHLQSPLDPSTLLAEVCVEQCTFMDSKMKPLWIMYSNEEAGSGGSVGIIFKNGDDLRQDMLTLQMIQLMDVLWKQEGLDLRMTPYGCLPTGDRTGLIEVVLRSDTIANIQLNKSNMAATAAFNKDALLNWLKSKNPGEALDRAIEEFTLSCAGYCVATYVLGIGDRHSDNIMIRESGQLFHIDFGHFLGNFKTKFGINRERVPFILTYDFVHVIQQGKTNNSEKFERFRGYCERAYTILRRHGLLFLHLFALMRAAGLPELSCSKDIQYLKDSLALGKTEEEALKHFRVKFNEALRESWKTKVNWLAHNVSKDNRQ
As to the kind of experiment: Inhibition of PI3Kdelta (unknown origin) after 40 mins by kinase-Glo reagent based luminescence assay.

The target of assay [13] is Phosphatidylinositol 4,5-bisphosphate 3-kinase catalytic subunit beta isoform (Homo sapiens, UniProt P42338). As to the kind of experiment: Inhibition of PI3Kbeta (unknown origin) after 40 mins by kinase-Glo reagent based luminescence assay.
Chain of Phosphatidylinositol 4,5-bisphosphate 3-kinase catalytic subunit beta isoform (P42338 whole entry, canonical isoform): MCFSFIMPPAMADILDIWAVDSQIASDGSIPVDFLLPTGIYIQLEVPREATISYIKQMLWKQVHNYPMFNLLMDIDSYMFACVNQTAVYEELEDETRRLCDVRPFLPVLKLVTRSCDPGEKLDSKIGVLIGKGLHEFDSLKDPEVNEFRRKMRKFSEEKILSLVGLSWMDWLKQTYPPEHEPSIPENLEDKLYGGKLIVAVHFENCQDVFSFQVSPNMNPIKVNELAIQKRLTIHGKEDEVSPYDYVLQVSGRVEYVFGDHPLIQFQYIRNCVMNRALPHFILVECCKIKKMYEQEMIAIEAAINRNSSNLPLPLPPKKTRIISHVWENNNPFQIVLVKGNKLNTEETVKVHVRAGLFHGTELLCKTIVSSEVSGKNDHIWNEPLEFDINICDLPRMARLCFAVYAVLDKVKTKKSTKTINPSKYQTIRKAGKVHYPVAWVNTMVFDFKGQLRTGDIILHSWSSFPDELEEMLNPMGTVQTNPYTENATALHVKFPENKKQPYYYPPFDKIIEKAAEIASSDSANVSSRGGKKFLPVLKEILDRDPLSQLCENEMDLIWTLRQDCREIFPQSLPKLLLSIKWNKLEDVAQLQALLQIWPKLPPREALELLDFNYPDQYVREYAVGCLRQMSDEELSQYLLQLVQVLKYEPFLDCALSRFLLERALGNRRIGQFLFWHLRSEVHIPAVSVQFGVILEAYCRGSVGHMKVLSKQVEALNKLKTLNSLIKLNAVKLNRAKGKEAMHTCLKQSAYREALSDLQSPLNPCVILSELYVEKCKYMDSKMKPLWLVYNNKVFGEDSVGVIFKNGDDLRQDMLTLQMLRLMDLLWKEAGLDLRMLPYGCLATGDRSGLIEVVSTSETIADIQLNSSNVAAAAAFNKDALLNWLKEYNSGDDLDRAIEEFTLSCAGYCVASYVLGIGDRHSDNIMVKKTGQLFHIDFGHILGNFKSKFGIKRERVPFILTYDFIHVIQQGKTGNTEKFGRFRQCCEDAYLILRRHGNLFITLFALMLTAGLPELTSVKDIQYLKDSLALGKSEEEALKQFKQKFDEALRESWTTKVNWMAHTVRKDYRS

The structures appear in SMILES notation. Activity calls are given as the source filed them. The calls are words filed in the database; no cut-off is given here.

For orientation: IC50 means the concentration needed to halve the response being measured. A low value points to inhibition by little substance. As usually defined, the EC50 is the concentration needed to bring the measured effect to its halfway point.

Chain of Phosphatidylinositol 4,5-bisphosphate 3-kinase catalytic subunit alpha isoform (Homo sapiens, UniProt P42336) (P42336 whole entry, canonical isoform): as the sequence (P42336 whole entry H1047R, canonical isoform) above, with R1047H counted along it
Description for MCF7: Antiproliferative activity against human MCF7 cells after 72 hrs by CCK-8 assay

In the case of `O=C(Cc1ccc(F)c(Cl)c1)c1ccc(O)c(O)c1O`, the IC50 in the assay on HCT-116 [1] is 47.3 µM; in the assay on MCF7, over 50 µM. In addition, the response in assay [2] was half-maximal at 9.7 µM (EC50).

Take `O=C(Cc1ccc(C(F)(F)F)cc1)c1ccc(O)c(O)c1O`: the IC50 in the assay with HCT-116 [1] and with MCF7 was over 50 µM throughout. The concentration for a half-maximal effect (EC50) in assay [2] turned out to be 58.4 µM.

Turning to `O=C(Cc1ccccc1F)c1ccc(O)c(O)c1O`, the IC50 in the assay with HCT-116 [1] and with MCF7 was over 50 µM throughout. Further, the EC50 in assay [2] was over 500 µM.

With `O=C(Cc1ccc(Cl)cc1)c1c(O)cc(O)cc1O`, the IC50 in the assay on HCT-116 [1] and in the assay on MCF7 was over 50 µM throughout. For the same compound, the 50% effective concentration (EC50) in assay [2] stood at 115 µM; in assay [3], 79.3 µM.

On to `Cn1c(=O)n(-c2ccc(C(C)(C)C#N)cc2)c2c3cc(-c4cnc5ccccc5c4)ccc3ncc21` [DACTOLISIB], for which, in assay [4], the EC50 stood at 0.079 µM.

For `COc1ccc(CC(=O)c2ccc(O)c(O)c2O)cc1OC`, the half-inhibitory concentration (IC50) with HCT-116 [1] and in the assay with MCF7 was over 50 µM each time. In assay [2], this compound displayed a half-maximal effective concentration (EC50) of 242 µM.

With `O=C(Cc1ccc(Cl)cc1)c1ccc(O)c(O)c1O`, the 50% inhibitory concentration (IC50) with HCT-116 [1] and in the assay on MCF7 was over 50 µM throughout. For the same compound, the figures for the EC50 in assay [2] and in assay [3] were 69.3 µM and 35.2 µM, respectively.

In the case of `FC(F)c1nc2ccccc2n1-c1nc(N2CCOCC2)nc(N2CCOCC2)n1` [ZSTK-474], the viability at 5 µM with HCT-116 [5] worked out at 92%. Besides, the IC50 in the assay with HCT-116 [1] is 1.31 µM; in the assay with MCF7 it was 5.27 µM. Moreover, the Activity entry was “Dose-dependent effect” in the assay on HCT-116 [6], 0.2% in the assay with HCT-116 [8], 1.29% in the assay on HCT-116 [9] and 5.6% in the assay on HCT-116 [10]. In the assay on HCT-116 [7], the outcome was Active.

Turning to `O=C(Cc1ccc(Cl)c(Cl)c1)c1ccc(O)c(O)c1O`, the concentration for half-maximal inhibition (IC50) in the assay with HCT-116 [1] came out at 35.5 µM; in the assay on MCF7, 48.9 µM. The same compound showed a concentration for a half-maximal effect (EC50) in [2] of 8.9 µM.

With `O=C(Cc1ccccc1Cl)c1ccc(O)c(O)c1O`, the half-maximal inhibitory concentration (IC50) with HCT-116 [1] and in the assay with MCF7 was over 50 µM each time. In [2], this compound gave an EC50 of over 500 µM.

As to `O=C(Cc1ccc(F)cc1)c1ccc(O)c(O)c1O`, the IC50 in the assay with HCT-116 [1] and in the assay on MCF7 was over 50 µM each time. The same compound displayed an EC50 in assay [2] of 170 µM.

In the case of `O=C(Cc1ccc(Cl)cc1)c1cccc(O)c1O`, the IC50 with HCT-116 [1] and in the assay on MCF7 was over 50 µM throughout. This compound also came in with a half-maximal effective concentration (EC50) in assay [2] of over 500 µM.

As for `O=C(Cc1cccc(Cl)c1)c1ccc(O)c(O)c1O`, the IC50 with HCT-116 [1] and in the assay with MCF7 was over 50 µM in each case. Moreover, the EC50 in assay [2] worked out at 98.2 µM.

For the compound `Oc1ccc(-c2n[nH]cc2-c2ccc(Cl)c(Cl)c2)c(O)c1O`, the EC50 in assay [11] is 10 µM; in assay [12], 19.1 µM; in [13], 5.7 µM.

For `O=C(Cc1ccc(Cl)cc1)c1ccc(O)cc1O`, the IC50 in the assay on HCT-116 [1] and with MCF7 was over 50 µM in each case. In assay [2], the EC50 was 196 µM.
